Molecular target: T1, HPK1 (Homo sapiens, UniProt Q92918)
T1 construct: A HiBiT tag was introduced by CRISPR on the N terminus of HPK1 in Jurkat cells; host or cells: Jurkat cells (ATCC TIB-152), monoclonal line with CRISPR knock-in of HiBiT at the endogenous HPK1 locus
Experiment: HPK1 Cellular HiBit Degradation Assay
Format: cell-based
Details: HiBiT HPK1 Jurkat cells, 24 hrs; for DC50: concentration at which 50% of HPK1 was remaining, read-out: DC50 Category; for Dmax: Jurkat, maximum degradation vs DMSO vehicle control, read-out: Dmax Category
Summary of the method: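 Jurkat cells with CRISPR knock-in N-terminal HiBiT-HPK1 were treated with CTMs (11-point, 3.16-fold, 10 uM to 0.1 nM final) for 24 hrs at 37° C. HiBiT lytic luminescence, with parental Jurkat as background and DMSO as 100%, gave % HPK1 remaining; four-parameter fit yielded DC50 and Dmax (100 minus lowest % remaining).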

T1 sequence (Q92918 whole entry): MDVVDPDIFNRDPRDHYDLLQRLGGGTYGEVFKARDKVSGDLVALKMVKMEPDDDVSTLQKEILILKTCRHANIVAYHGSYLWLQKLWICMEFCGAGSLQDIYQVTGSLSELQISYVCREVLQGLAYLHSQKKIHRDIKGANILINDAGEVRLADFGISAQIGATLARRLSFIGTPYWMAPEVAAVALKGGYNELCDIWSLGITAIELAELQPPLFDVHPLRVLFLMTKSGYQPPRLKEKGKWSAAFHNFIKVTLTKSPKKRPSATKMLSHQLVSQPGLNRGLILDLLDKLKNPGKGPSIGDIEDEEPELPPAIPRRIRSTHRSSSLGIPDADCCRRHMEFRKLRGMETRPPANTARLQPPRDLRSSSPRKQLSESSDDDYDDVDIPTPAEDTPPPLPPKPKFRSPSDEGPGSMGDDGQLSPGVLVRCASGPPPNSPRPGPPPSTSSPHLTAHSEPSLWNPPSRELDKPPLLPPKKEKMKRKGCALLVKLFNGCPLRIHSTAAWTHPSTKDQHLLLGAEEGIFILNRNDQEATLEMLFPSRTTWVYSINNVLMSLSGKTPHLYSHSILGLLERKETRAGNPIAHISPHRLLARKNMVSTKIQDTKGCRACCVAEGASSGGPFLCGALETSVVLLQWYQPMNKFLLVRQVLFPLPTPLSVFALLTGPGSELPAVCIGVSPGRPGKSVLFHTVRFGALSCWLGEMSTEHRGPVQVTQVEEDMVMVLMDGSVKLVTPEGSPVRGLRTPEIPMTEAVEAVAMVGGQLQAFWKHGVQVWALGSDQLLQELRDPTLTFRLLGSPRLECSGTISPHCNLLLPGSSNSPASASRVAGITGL

Compound | DC50 [µM] | Dmax [%]
CC(C)n1cnc2cc(-c3ccc4c(c3)N([C@H]3C[C@@H](N5CCCCC5)C3)C(=O)C43CCN(C(=O)[C@]4(C)CCN(C(=O)[C@H]5CC[C@H](Oc6ccc(C7CCC(=O)NC7=O)cn6)CC5)C4)CC3)nc(NC3CC3)c21 (stereo partly drawn) [Example 163, 3-(6-(((1R,4R)-4-((R)-3-(6-(4-(cyclopropylamino)-3-isopropyl-3H-imidazo[4,5-c]pyridin-6-yl)-2-oxo-1-((1S,3S)-3-(piperidin-1-yl)cyclobutyl)spiro[indoline-3,4′-piperidine]-1′-carbonyl)-3-methylpyrrolidine-1-carbonyl)cyclohexyl)oxy)pyridin-3-yl)piperidine-2,6-dione] | 0.1 to 0.5 | > 85
CC(C)n1cnc2cc(-c3ccc4c(c3)N([C@H]3C[C@@H](N5CCCCC5)C3)C(=O)C43CCN(C(=O)c4ccc(C(=O)N5CCN(c6ccc(C7CCC(=O)NC7=O)cc6)CC5)cc4)CC3)nc(Nc3ccccc3F)c21 (mixture of isomers) [Example 40, (3RS)-3-[4-(4-{4-[(6-{4-[(2-fluorophenyl)amino]-3-(propan-2-yl)-3H-imidazo[4,5-c]pyridin-6-yl}-2-oxo-1-[(1S,3S)-3-(piperidin-1-yl)cyclobutyl]-1,2-dihydrospiro[indole-3,4′-piperidin]-1′-yl)carbonyl]benzoyl}piperazin-1-yl)phenyl]piperidine-2,6-dione] | 0.5 to 1 | 50 to 70
CC(C)n1cnc2cc(-c3ccc4c(c3)N([C@H]3C[C@@H](N5CCCCC5)C3)C(=O)C43CCN(C(=O)C4CCN(C(=O)C5CCN(c6ccc(C7CCC(=O)NC7=O)nc6)CC5)CC4)CC3)nc(Nc3ccncc3F)c21 (mixture of isomers) [Example 82, (3RS)-3-[5-(4-{4-[(6-{4-[(3-fluoropyridin-4-yl)amino]-3-(propan-2-yl)-3H-imidazo[4,5-c]pyridin-6-yl}-2-oxo-1-[(1S,3S)-3-(piperidin-1-yl)cyclobutyl]-1,2-dihydrospiro[indole-3,4′-piperidin]-1′-yl)carbonyl]piperidine-1-carbonyl}piperidin-1-yl)pyridin-2-yl]piperidine-2,6-dione] | < 0.1 | 70 to 85
CC(C)n1cnc2cc(-c3ccc4c(c3)N([C@H]3C[C@@H](N5CCCCC5)C3)C(=O)C43CCN(C(=O)[C@@H]4CCN(C(=O)[C@H]5CC[C@H](Oc6ccc(C7CCC(=O)NC7=O)cc6)CC5)C4)CC3)nc(Nc3ccncc3F)c21 (stereo partly drawn) [Example 15, 3-(4-{[(1R,4R)-4-[(3R)-3-[(6-{4-[(3-fluoropyridin-4-yl)amino]-3-(propan-2-yl)-3H-imidazo[4,5-c]pyridin-6-yl}-2-oxo-1-[(1S,3S)-3-(piperidin-1-yl)cyclobutyl]-1,2-dihydrospiro[indole-3,4′-piperidin]-1′-yl)carbonyl]pyrrolidine-1-carbonyl]cyclohexyl]oxy}phenyl)piperidine-2,6-dione] | < 0.1 | > 85
CC(C)n1cnc2cc(-c3ccc4c(c3)N([C@H]3C[C@@H](N5CCCCC5)C3)C(=O)C43CCN(C(=O)[C@@H]4C[C@H]5CC[C@@H](C4)N5C(=O)C4CCN(c5ccc(C6CCC(=O)NC6=O)cn5)CC4)CC3)nc(NC3CC3)c21 (mixture of isomers) [Example 286, (3SR)-3-(6-{4-[(1S,3R,5RS)-3-({6-[4-(cyclopropylamino)-3-(propan-2-yl)-3H-imidazo[4,5-c]pyridin-6-yl]-2-oxo-1-[(1S,3S)-3-(piperidin-1-yl)cyclobutyl]-1,2-dihydrospiro[indole-3,4′-piperidin]-1′-yl}carbonyl)-8-azabicyclo[3.2.1]octane-8-carbonyl]piperidin-1-yl}pyridin-3-yl)piperidine-2,6-dione] | < 0.1 | 70 to 85
CC(C)n1cnc2cc(-c3ccc4c(c3)N([C@H]3C[C@@H](N5CCCCC5)C3)C(=O)C43CCN(C(=O)C45CN(C(=O)C6CCN(c7ccc(C8CCC(=O)NC8=O)cn7)CC6)CC4C5(F)F)CC3)nc(NC3CC3)c21 (mixture of isomers) [Example 281, (3RS)-3-(6-{4-[1-({6-[4-(cyclopropylamino)-3-(propan-2-yl)-3H-imidazo[4,5-c]pyridin-6-yl]-2-oxo-1-[(1S,3S)-3-(piperidin-1-yl)cyclobutyl]-1,2-dihydrospiro[indole-3,4′-piperidin]-1′-yl}carbonyl)-6,6-difluoro-3-azabicyclo[3.1.0]hexane-3-carbonyl]piperidin-1-yl}pyridin-3-yl)piperidine-2,6-dione] | < 0.1 | 50 to 70
CC(C)n1cnc2cc(-c3ccc4c(c3)N([C@H]3C[C@@H](N5CCCCC5)C3)C(=O)C43CCN(C(=O)[C@H]4CC[C@H](C(=O)N5CCC(N(C)c6ccc(C7CCC(=O)NC7=O)cn6)CC5)CC4)CC3)nc(Nc3ccccc3F)c21 (mixture of isomers) [Example 138, (3RS)-3-{6-[methyl({1-[(1R,4R)-4-[(6-{4-[(2-fluorophenyl)amino]-3-(propan-2-yl)-3H-imidazo[4,5-c]pyridin-6-yl}-2-oxo-1-[(1S,3S)-3-(piperidin-1-yl)cyclobutyl]-1,2-dihydrospiro[indole-3,4′-piperidin]-1′-yl)carbonyl]cyclohexanecarbonyl]piperidin-4-yl})amino]pyridin-3-yl}piperidine-2,6-dione] | < 0.1 | > 85

More lines, now with the values ahead:

DC50 [µM] | Dmax [%] | Compound
< 0.1 | 70 to 85 | Cc1cc(N2CCC(C(=O)N3CCC(C)(C(=O)N4CCC5(CC4)C(=O)N([C@H]4C[C@@H](N6CCCCC6)C4)c4cc(-c6cc7ncn(C(C)C)c7c(NC7CC7)n6)ccc45)CC3)CC2)ncc1C1CCC(=O)NC1=O (mixture of isomers) [Example 189, (3RS)-3-(6-{4-[4-({6-[4-(cyclopropylamino)-3-isopropylimidazo[4,5-c]pyridin-6-yl]-2-oxo-1-[(1S,3S)-3-(piperidin-1-yl)cyclobutyl]spiro[indole-3,4′-piperidin]-1′-yl}carbonyl)-4-methylpiperidine-1-carbonyl]piperidin-1-yl}-4-Methylpyridin-3-yl)piperidine-2,6-dione]
< 0.1 | 70 to 85 | CC(C)n1cnc2cc(-c3ccc4c(c3)N([C@H]3C[C@@H](N5CCCCC5)C3)C(=O)C43CCN(C(=O)C4CCN(C(=O)[C@H]5CC[C@H](C(=O)N6CCCc7cc(C8CCC(=O)NC8=O)ccc76)CC5)CC4)CC3)nc(Nc3ccccc3F)c21 (mixture of isomers) [Example 51, (3RS)-3-{1-[(1R,4R)-4-{4-[(6-{4-[(2-fluorophenyl)amino]-3-(propan-2-yl)-3H-imidazo[4,5-c]pyridin-6-yl}-2-oxo-1-[(1S,3S)-3-(piperidin-1-yl)cyclobutyl]-1,2-dihydrospiro[indole-3,4′-piperidin]-1′-yl)carbonyl]piperidine-1-carbonyl}cyclohexanecarbonyl]-1,2,3,4-tetrahydroquinolin-6-yl}piperidine-2,6-dione]
< 0.1 | > 85 | CC(C)n1cnc2cc(-c3ccc4c(c3)N([C@H]3C[C@@H](N5CCCCC5)C3)C(=O)C43CCN(C(=O)[C@@H]4CCN(C(=O)[C@H]5CC[C@H](Nc6ccc(C7CCC(=O)NC7=O)cc6)CC5)C4)CC3)nc(Nc3ccccc3F)c21 (mixture of isomers) [Example 3, (3RS)-3-(4-{[(1R,4R)-4-[(3R)-3-[(6-{4-[(2-fluorophenyl)amino]-3-(propan-2-yl)-3H-imidazo[4,5-c]pyridin-6-yl}-2-oxo-1-[(1S,3S)-3-(piperidin-1-yl)cyclobutyl]-1,2-dihydrospiro[indole-3,4′-piperidin]-1′-yl)carbonyl]pyrrolidine-1-carbonyl]cyclohexyl]amino}phenyl)piperidine-2,6-dione]
< 0.1 | > 85 | CC(C)n1cnc2cc(-c3ccc4c(c3)N([C@H]3C[C@@H](N5CCCCC5)C3)C(=O)C43CCN(C(=O)C4(C)CCN(C(=O)C5CCN(c6ccc(C7CCC(=O)NC7=O)cc6)CC5)CC4)CC3)nc(Nc3ccccc3F)c21 (mixture of isomers) [Example 110, (3RS)-3-[4-(4-{4-[(6-{4-[(2-fluorophenyl)amino]-3-(propan-2-yl)-3H-imidazo[4,5-c]pyridin-6-yl}-2-oxo-1-[(1S,3S)-3-(piperidin-1-yl)cyclobutyl]-1,2-dihydrospiro[indole-3,4′-piperidin]-1′-yl)carbonyl]-4-methylpiperidine-1-carbonyl}piperidin-1-yl)phenyl]piperidine-2,6-dione]
< 0.1 | 70 to 85 | CC(C)n1cnc2cc(-c3ccc4c(c3)N([C@H]3C[C@@H](N5CCCCC5)C3)C(=O)C43CCN(C(=O)C4CCN(C(=O)C5CCN(c6ccc(C7CCC(=O)NC7=O)nn6)CC5)CC4)CC3)nc(NC3CC3)c21 (mixture of isomers) [Example 236, (3RS)-3-(6-{4-[4-({6-[4-(cyclopropylamino)-3-(propan-2-yl)-3H-imidazo[4,5-c]pyridin-6-yl]-2-oxo-1-[(1S,3S)-3-(piperidin-1-yl)cyclobutyl]-1,2-dihydrospiro[indole-3,4′-piperidin]-1′-yl}carbonyl)piperidine-1-carbonyl]piperidin-1-yl}pyridazin-3-yl)piperidine-2,6-dione]
< 0.1 | 50 to 70 | CC(C)n1cnc2cc(-c3ccc4c(c3)N([C@H]3C[C@@H](N5CCCCC5)C3)C(=O)C43CCN(C(=O)[C@H]4CC[C@H](C(=O)N5CCC(Nc6ccc(C7CCC(=O)NC7=O)cn6)CC5)CC4)CC3)nc(Nc3ccncc3F)c21 (mixture of isomers) [Example 27]
< 0.1 | 70 to 85 | CC(C)n1cnc2cc(-c3ccc4c(c3)N([C@H]3C[C@@H](N5CCCCC5)C3)C(=O)C43CCN(C(=O)C4(C)CCN(C(=O)C5CCN(c6ccc([C@@H]7CCC(=O)NC7=O)cn6)CC5)CC4)CC3)nc(OC3CCOCC3)c21 [Example 165, 3-(6-{4-[4-methyl-4-({6-[4-(oxan-4-yloxy)-3-(propan-2-yl)-3H-imidazo[4,5-c]pyridin-6-yl]-2-oxo-1-[(1S,3S)-3-(piperidin-1-yl)cyclobutyl]-1,2-dihydrospiro[indole-3,4′-piperidin]-1′-yl}carbonyl)piperidine-1-carbonyl]piperidin-1-yl}pyridin-3-yl)piperidine-2,6-dione]
